Assay results from the NIST ThermoML archive (doi:10.1021/je800591u).
± gives the expanded uncertainty stated by the source.

Conditions: Liquid, Ebulliometric method (Recirculating still)

Row | vapor or sublimation pressure (288.15 K) [kPa] | vapor or sublimation pressure (303.15 K) [kPa] | vapor or sublimation pressure (318.15 K) [kPa] | vapor or sublimation pressure (333.15 K) [kPa] | vapor or sublimation pressure (348.15 K) [kPa] | vapor or sublimation pressure (363.15 K) [kPa] | SMILES
1 | 335 ± 14 | 529 ± 14 | 804 ± 14 | 1176 ± 15 | 1664 ± 16 | 2294 ± 17 | FC(C(F)(F)F)C(F)(F)F [1,1,1,2,3,3,3-heptafluoropropane]
2 | 223 ± 14 | 352 ± 14 | 536 ± 14 | 785 ± 14 | 1107 ± 15 | 1515 ± 15 | C=C(C)C [2-methylpropene]
